Four compounds from publication PMC5491906, “Cellular uptake and anti-tumor activity of gemcitabine conjugated with new amphiphilic cell penetrating peptides” (EXCLI Journal, 2017) can be followed below.

Where a SMILES comes first, the peptide text is derived from it. Where no end group is shown, it is not given here. The star is where a group is joined. X1 = Nc1ccn([C@@H]2O[C@H](COC(=O)CCC(=O)*)[C@@H](O)C2(F)F)c(=O)n1

For series [1], the system named is A549 cells. Nature of the series: Antitumor activity of free gemcitabine and Gem-CPP conjugates by MTT test. The note with it: for cell viability: 72 h incubation, 10 % FBS; for cell viability / cytotoxicity in comparison to the free drug: 72 h, 15 and 25 µM where stated. On the procedure:
(§1) A549 lung carcinoma cell line was obtained from the Pasteur Institute (Iran). Cells were maintained in RPMI 1640 medium supplemented with 10 % FBS, 100 units/ml penicillin, and 100 μg/ml streptomycin and grown at 37 °C in a 5 % CO2 humidified atmosphere.
(§2) A549 cells were seeded into 96-well plates at a density of 1.5 × 10^4 cells/well and pre-incubated for 24 h. The next day, different concentrations of peptides were added to the culture medium. Cells were incubated at 37 °C for 72 h. The medium was removed and the wells were washed with PBS. The MTT assay was performed by introducing 50 μl of 2 mg/ml MTT to each well for 4 h. The culture media aspirated and then resulting formazan crystals were dissolved in DMSO and the absorbance of individual wells was obtained at 570 nm. Untreated cells were defined as 100 % viable.
The antitumor activity of free gemcitabine and its conjugates with CPPs (Gem-CPP) was investigated using MTT test after incubation for 72 h. The activity of drug-peptide conjugates i.e. Gem-R5W3R4, Gem-[RW]6, Gem-[RW]5, Gem-[RW]4 and Gem-[WR]3, was evaluated and compared with that of the free drug (Figure 6(Fig. 6)).
Figure 6 Toxicity of Gem-R5W3R4 (A), Gem-[RW]6 (B), Gem-[RW5] (C), Gem-[RW]4 (D), Gem-[RW]3 (E) and Gem to A549 cells. The cells were incubated for 3 days in 10 % FBS with or without peptides and analyzed for proliferation by MTT assay.
For orientation: Tetrazolium dyes change colour on reduction, which living cells bring about.

Series [2] concerns A549 cells. Nature of the series: Fluorescent microscopy of uptake and intracellular localization of FITC-labeled peptides. The series is classed as cell-based. The note with it: FITC-labeled peptide, 25 µM, 1.5 h at 37 °C, live A549 cells, fluorescence read-out. On the procedure: The cellular uptake of the FITC-labeled peptide was examined in A549 cell line. A549 cells were seeded with RPMI 1640 medium on coverslips in 6-well plates and allowed to adhere overnight. Then the medium was removed and washed with PBS. The cells were treated with FITC-labeled peptide for 1.5 h at 37 °C. After incubation, the media containing the compound were removed and the cells were washed with PBS three times. Coverslips were placed on a microscope slide (Olympus IX81 fluorescence microscope, Olympus Optical Co., Ltd., Tokyo, Japan).
The uptake and intracellular localization of FITC-labeled peptides were examined by fluorescent microscopy. […] The uptake of all peptides was examined at the concentration of 25 µM.
Figure 4 Fluorescence microscopy, visualization of FITC-labeled, R5W3R4 (A, B), [RW]6 (C, D), [RW]5 (E, F), [RW]4 (G, H), and [RW]3 (I, J) in A459 cells. The top photos show fluorescence microscopy and the bottom bright field of A459 cells. Live cells were treated with 25 µm of peptides for 1.5 h at 37 °C. Control cells were incubated in RPMI medium without the peptides.

Series [3] deals with A549 cells. Nature of the series: Cytotoxicity of blank CPPs by MTT assay. The following applies: 72 h peptide exposure. The protocol:
as §1, §2

Series [4] concerns A549 cells. Nature of the series: Flow cytometry of cellular uptake of FITC-labeled peptides. Type of series: cell-based. The note with it: FITC-labeled peptide, 1.5 h at 37 °C, trypsin treatment to remove surface-bound peptide, FACSCalibur. On the procedure: A549 cells were seeded with RMPI 1640 medium in 6-well plates (3×10^5 cells/well) 24 h prior to the experiment. After 24 h, the medium was removed and washed with PBS. Then FITC-labeled peptide was added to the cells. The plates were incubated for 1.5 h at 37 °C. After that, the medium containing the peptide was removed. The cells were washed three times with PBS and detached with 0.25 % trypsin/EDTA (0.53 mM) for 5 min. To each well, 2 ml of the medium was added and centrifuged for 4 min. Cells were washed twice with PBS and finally were re-suspended in flow cytometry buffer and analyzed by FACSCalibur (Becton Dickinson, San Jose, CA, USA).
Flow cytometry was used to determine the relative amounts of internalized peptide after 1.5 h incubation at 37 °C. After the incubation, cells were treated with trypsin to remove the cell surface-bound peptides. […] The percentage of cell fluorescence was increased with increasing peptides concentration. This effect was nearly linear for the tested concentrations. There was an increase in fluorescence intensity of cells treated with peptides of higher amino acid content.
Figure 5 Cellular uptake of FITC-labeled peptides in live A549 cells after incubation. The uptake was measured as the relative fraction of positive cells (%) from flow cytometry analysis of all living cells positive for the fluorophore.
For orientation: A flow cytometer gives signals particle by particle.

In general, cell viability refers to a per cent measure of how many cells are alive, often set against a control. Higher therefore signals better survival. Regarding `Nc1ccn([C@@H]2O[C@H](CO)[C@@H](O)C2(F)F)c(=O)n1` [Free drug, Gemcitabine], the cell viability in series [1] (15 µM) and in series [1] (25 µM) was 20% throughout.
Regarding `N=C(N)NCCC[C@H](NC(=O)[C@H](CCCNC(=N)N)NC(=O)[C@H](CCCNC(=N)N)NC(=O)[C@H](CCCNC(=N)N)NC(=O)[C@H](Cc1c[nH]c2ccccc12)NC(=O)[C@H](Cc1c[nH]c2ccccc12)NC(=O)[C@H](Cc1c[nH]c2ccccc12)NC(=O)[C@H](CCCNC(=N)N)NC(=O)[C@H](CCCNC(=N)N)NC(=O)[C@H](CCCNC(=N)N)NC(=O)[C@H](CCCNC(=N)N)NC(=O)[C@H](CCCNC(=N)N)NC(=O)CCC(=O)OC[C@H]1O[C@@H](n2ccc(N)nc2=O)C(F)(F)[C@@H]1O)C(N)=O` [Gem-R5W3R4] (X1-RRRRRWWWRRRR-NH2), in series [1], the “cell viability / cytotoxicity in comparison to the free drug” value was “decreased cell viability”.
For `N=C(N)NCCC[C@H](NC(=O)CCC(=O)OC[C@H]1O[C@@H](n2ccc(N)nc2=O)C(F)(F)[C@@H]1O)C(=O)N[C@@H](Cc1c[nH]c2ccccc12)C(=O)N[C@@H](CCCNC(=N)N)C(=O)N[C@@H](Cc1c[nH]c2ccccc12)C(=O)N[C@@H](CCCNC(=N)N)C(=O)N[C@@H](Cc1c[nH]c2ccccc12)C(=O)N[C@@H](CCCNC(=N)N)C(=O)N[C@@H](Cc1c[nH]c2ccccc12)C(=O)N[C@@H](CCCNC(=N)N)C(=O)N[C@@H](Cc1c[nH]c2ccccc12)C(=O)N[C@@H](CCCNC(=N)N)C(=O)N[C@@H](Cc1c[nH]c2ccccc12)C(N)=O` [Gem-[RW]6], the “cell viability / cytotoxicity in comparison to the free drug” value in series [1] is on record as “decreased cell viability”.
In the case of RRRRRWWWRRRR-NH2 [R5W3R4], in series [2], the “intracellular distribution (fluorescent microscopy)” value is given as “homogeneous staining throughout the intracellular space”. Also, the cell toxicity value in series [3] (25 µM) turned out to be 9%. Further, the cell death in series [3] (50 µM) is 28%. Also, the “intracellular fluorescence, relative fraction of positive cells (flow cytometry)” value in series [4] is given as “maximum intracellular fluorescence”.
